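Results reflect a 48-hour exposure of cells in 96-well plates to compound at five concentrations. Abbreviation: GI50, concentration required for 50% inhibition of growth. TGI: concentration producing complete growth inhibition.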
Experiments:
Assay in all cases: DTP human tumour cell line panel, 48 h
[1] = tested on: SR leukemia
[2] = tested on: ACHN renal
[3] = tested on: KM12 colon
[4] = tested on: A498 renal
[5] = tested on: RPMI-8226 leukemia
[6] = tested on: U251 CNS
[7] = tested on: SF-539 CNS
[8] = tested on: TK-10 renal
[9] = tested on: MOLT-4 leukemia
[10] = tested on: COLO 205 colon

With `COc1ccc2nc3cccc([N+](=O)[O-])c3c(NCCNCCN(C)C)c2c1` the GI50 [1] was 0.0329 µM, the GI50 [2] was 0.0414 µM and the TGI [2] was 0.439 µM. For the same compound, the GI50 [3] was 0.142 µM, the TGI [3] was 0.414 µM and the GI50 [4] was 0.201 µM. It also gave a TGI [4] of 0.45 µM, a GI50 [5] of 0.0208 µM and a TGI [5] of 0.106 µM. For the same compound, the GI50 [6] was 0.0376 µM, the TGI [6] was 0.404 µM and the GI50 [7] was 0.199 µM. For the same compound, the TGI [7] was 0.429 µM, the GI50 [8] was 0.194 µM and the TGI [8] was 1.09 µM. The GI50 [9] was 0.022 µM, the TGI [9] was 0.192 µM and the GI50 [10] was 0.0277 µM. The TGI [10] was 0.0949 µM.

`O=C1C=C(Nc2ccc(S(=O)(=O)Nc3ncccn3)cc2)c2ccccc2C1=O` gave a TGI [1] of 95.9 µM, a TGI [2] of 70.4 µM and a TGI [3] of 38.6 µM. The TGI [4] was 69.4 µM, the TGI [5] was 97.2 µM and the TGI [6] was 31.5 µM. The TGI [7] was 58.4 µM, the TGI [8] was greater than 100 µM and the TGI [9] was greater than 100 µM. The TGI [10] was 39.4 µM.

Compound `CC/C(Cc1ccccc1)=C(/c1ccc(O)cc1)c1ccc(OCCN2CCCC2)cc1` has a GI50 [1] of 1.35 µM, a TGI [1] of 3.2 µM and a GI50 [2] of 1.83 µM. It also gave a TGI [2] of 3.39 µM, a GI50 [3] of 1.94 µM and a TGI [3] of 3.74 µM. The GI50 [4] was 1.27 µM, the TGI [4] was 2.72 µM and the GI50 [5] was 2.1 µM. The TGI [5] was 4.67 µM, the GI50 [6] was 1.69 µM and the TGI [6] was 3.19 µM. It also gave a GI50 [7] of 1.67 µM, a TGI [7] of 3.21 µM and a GI50 [8] of 1.75 µM. For the same compound, the TGI [8] was 3.34 µM, the GI50 [9] was 1.57 µM and the TGI [9] was 3.63 µM. The GI50 [10] was 1.76 µM and the TGI [10] was 3.39 µM.

With `Cc1c(C)c2c(c(C)c1OCC(=O)O)CC[C@@](C)(CCC[C@@H](C)CCC[C@@H](C)CCCC(C)C)O2` the GI50 [1] was 50.4 µM, the TGI [1] was 500 µM and the GI50 [2] was 53.1 µM. It also gave a TGI [2] of 112 µM, a GI50 [3] of 63.3 µM and a TGI [3] of 173 µM. The GI50 [4] was 94.9 µM, the TGI [4] was 167 µM and the GI50 [5] was 56.3 µM. The TGI [5] was 214 µM, the GI50 [6] was 52.7 µM and the TGI [6] was 133 µM. For the same compound, the GI50 [7] was 78.1 µM, the TGI [7] was 153 µM and the GI50 [8] was 85.6 µM. The TGI [8] was 154 µM, the GI50 [9] was 50.4 µM and the TGI [9] was 202 µM. It also gave a GI50 [10] of 53.4 µM and a TGI [10] of 144 µM.

Compound `CCC(=O)C(C(=O)CC)c1c(OC(=O)c2ccccc2)ccc(O)c1C(=O)OC` has a TGI [1] greater than 100 µM, a TGI [2] greater than 100 µM and a TGI [3] greater than 100 µM. The TGI [4] was greater than 100 µM, the TGI [5] was greater than 100 µM and the TGI [6] was greater than 100 µM. The TGI [7] was greater than 100 µM, the TGI [8] was greater than 100 µM and the TGI [9] was greater than 100 µM. For the same compound, the TGI [10] was greater than 100 µM.

In the case of `C=C1C(=O)O[C@H]2[C@H]1CC/C(COC(=O)NCCc1cccc(OC)c1)=C\CC[C@@]1(C)O[C@@H]21`, the GI50 [1] is reported as 0.511 µM, the TGI [1] is reported as 2.86 µM and the GI50 [2] is reported as 1.12 µM. It also gave a TGI [2] of 2.58 µM, a GI50 [3] of 4.27 µM and a TGI [3] of 15.6 µM. It also gave a GI50 [4] of 2.35 µM, a TGI [4] of 7.76 µM and a GI50 [5] of 0.917 µM. The TGI [5] was 4.34 µM, the GI50 [7] was 1.49 µM and the TGI [7] was 2.96 µM. For the same compound, the GI50 [8] was 1.61 µM, the TGI [8] was 3.25 µM and the GI50 [9] was 2.09 µM. It also gave a TGI [9] of 5 µM, a GI50 [10] of 1.55 µM and a TGI [10] of 3.28 µM.

`CCOc1ccc(C(C)=O)cc1NC(=O)c1cccc(-c2nnn(CC)n2)c1` showed a GI50 [1] of 0.401 µM, a TGI [1] greater than 100 µM and a GI50 [2] of 0.748 µM. It also gave a TGI [2] of 70.3 µM, a GI50 [4] of 0.803 µM and a TGI [4] of 24 µM. The GI50 [5] was 1.22 µM, the TGI [5] was greater than 100 µM and the GI50 [6] was 0.458 µM. It also gave a TGI [6] of 16.7 µM, a GI50 [7] of 0.346 µM and a TGI [7] of 3.54 µM. It also gave a GI50 [8] of 14.3 µM, a TGI [8] of 50.3 µM and a GI50 [9] of 0.682 µM. For the same compound, the TGI [9] was greater than 100 µM, the GI50 [10] was 0.395 µM and the TGI [10] was 1.93 µM.

Compound `Cn1cncc1-c1c(F)cncc1NC(=O)c1c(N)nn2cc(F)cnc12` has a GI50 [1] of 0.206 µM, a TGI [1] of 2.54 µM and a GI50 [2] of 0.422 µM. For the same compound, the TGI [2] was greater than 100 µM, the GI50 [3] was 1.52 µM and the TGI [3] was greater than 100 µM. It also gave a GI50 [4] of 0.526 µM, a TGI [4] of 8.83 µM and a GI50 [5] of 1.53 µM. It also gave a TGI [5] of 9.4 µM, a GI50 [6] of 4.48 µM and a TGI [6] greater than 100 µM. For the same compound, the GI50 [8] was 4.54 µM, the TGI [8] was 83.7 µM and the GI50 [9] was 0.203 µM. The TGI [9] was 1.1 µM, the GI50 [10] was 5.68 µM and the TGI [10] was greater than 100 µM.

`CC(=O)O[C@H](C[C@H](C(C)C)N(C)C(=O)[C@@H](NC(=O)[C@H]1CCCCN1C)C(C)C)c1cccc(C(=O)N[C@@H](Cc2ccccc2)C[C@H](C)C(=O)O)n1` showed a GI50 [1] of 0.00429 µM, a TGI [1] greater than 25 µM and a GI50 [2] of 0.0955 µM. The TGI [2] was greater than 25 µM, the GI50 [3] was 0.0262 µM and the TGI [3] was greater than 25 µM. It also gave a GI50 [4] of 0.0158 µM, a TGI [4] of 0.0737 µM and a GI50 [5] of 0.0213 µM. For the same compound, the TGI [5] was greater than 25 µM, the GI50 [6] was 0.0353 µM and the TGI [6] was greater than 25 µM. For the same compound, the GI50 [7] was 0.0193 µM, the TGI [7] was 0.0626 µM and the GI50 [9] was 0.0219 µM. The TGI [9] was greater than 25 µM, the GI50 [10] was 0.0279 µM and the TGI [10] was 0.329 µM.

`CCN(CC)c1ccc(N=Nc2ccc(-c3nc4cccn(C)c-4n3)cc2)cc1` was tested, and the TGI [1] was 14.8 µM, the TGI [3] was 24.9 µM and the TGI [4] was 28.3 µM. For the same compound, the TGI [5] was 7.07 µM, the TGI [6] was 16.3 µM and the TGI [7] was 25.8 µM. It also gave a TGI [8] of 68.2 µM, a TGI [9] of 9.32 µM and a TGI [10] of 27.9 µM.

Work on `CCOC(=O)C#Cc1c(C(=O)OCC)nnn1[C@@H]1O[C@H](CO)[C@H]2OC3(CCCCC3)O[C@H]21` yielded a GI50 [1] of 1.63 µM, a TGI [1] of 4.64 µM and a GI50 [2] of 1.8 µM. For the same compound, the TGI [2] was 3.41 µM, the GI50 [3] was 12.2 µM and the TGI [3] was 27 µM. For the same compound, the GI50 [4] was 17.6 µM, the TGI [4] was 31.8 µM and the GI50 [5] was 3.07 µM. The TGI [5] was 7.97 µM, the GI50 [6] was 11.2 µM and the TGI [6] was 23.2 µM. For the same compound, the GI50 [8] was 1.79 µM, the TGI [8] was 3.28 µM and the GI50 [9] was 1.95 µM. It also gave a TGI [9] of 5.42 µM, a GI50 [10] of 1.98 µM and a TGI [10] of 4.06 µM.
